Assay results: patent publication US20240416143A1, “PHOTONIC ANTIMICROBIAL WOUND SURFACE DRESSING” (The General Hospital Corporation, priority 2021, published 2024)
Read-outs that look alike come from different tables or passages of the source.

Tests used:
MRSA = assay: Photoinactivation of planktonic cultures by menadione + antimicrobial blue light; assay type: cell-based, methicillin-resistant Staphylococcus aureus; conditions: menadione ⅛ MIC + aBL 90 J/cm^2 (50 mW/cm^2), 405 nm
Protocol: (§1) The bacterial cells were grown in BHI broth medium shaken overnight. Cells were collected by centrifugation at 4,000 rpm for 5 minutes and suspended in PBS at a density of 10^8 colony-forming units (CFU)/mL (estimated by measuring the optical density at 600 nm; O.D 0.1=10^8 cells/mL). The microbial suspension in PBS was transferred to a 35×12-mm dish and mixed with different concentrations of menadione: 0, 0.5, 1 and 2 μg/mL for MRSA USA300, AF003 and IQ0064; 0, 1, 10 and 30 μg/mL for P. aeruginosa PA01; and 0, 16, 32, 64 and 128 μg/mL for E. coli ATCC 25922. After incubation in the dark at 25° C. for 1 hour, the planktonic suspension of cells at room temperature was irradiated using aBL (405 nm) at 50 mW/cm^2 with different radiant exposures (0-250 J/cm^2). During the aBL irradiation, 40 μL of samples were withdrawn every 15 minutes, and the CFUs were determined by 10-fold serial dilutions in PBS (10-1 to 10-7 dilution factors), plated on BHI agar plates as described previously [Ref. 17]. CFUs were counted after overnight incubation at 37° C. Experiments were performed in triplicate.

P. aeruginosa [1] = assay: as above; assay type: cell-based, Pseudomonas aeruginosa PA01; conditions: menadione ⅛ MIC + aBL 90 J/cm^2 (50 mW/cm^2), 405 nm
Protocol: as §1

[2] = ROS probes (DCF-DA, SOSG, HPF) in the absence of bacteria
Protocol: 1.2.9.1 General ROS measured by […] (DCFH-DA) assay: DCF-DA was purchased from Thermofisher. […] The production of ROS by menadione when combined with blue light was measured in the presence and absence of bacteria. The bacteria (MRSA) was grown in BHI broth medium with shaking overnight. Cells were collected by centrifugation at 4,000 rpm for 5 minutes and resuspended in PBS in the stationary growth phase culture of 1×10^8 CFU/mL. The microbial suspension was transferred to a 35×12-mm dish, mixed with 10 μg/mL of menadione, and stained with 10 μM DCFH-DA solution per the manufacturer's instruction. The solutions (with and without bacteria) were irradiated with the blue light at 50 mW/cm^2 and the samples were collected every 15 minutes to be analyzed by Microplate Spectrofluorometer (SPECTRAmax®, Molecular Devices, USA) at λex=495 nm and λem=525 nm. The control and the menadione/dark groups were generated under the same conditions without irradiation.
To do so, the production of ROS by menadione combined with blue light was measured by different ROS probes, DCF-DA, SOSG and HPF, in the presence and absence of MRSA. […] Oxidation of these probes can be detected by monitoring the increasing of fluorescence signals. […]

[3] = UV-Vis absorption spectroscopy of menadione; assay type: physicochemical
Protocol: Stock solutions of menadione (10 mg/mL) were prepared in DMSO only and in DMSO/Tween (1:1) to improve the solubility. Different concentrations of menadione were prepared to make a calibration curve by diluting the stock solution in PBS so that the final solution was either 1% DMSO or 1% DMSO/Tween. The absorbance spectra were measured using an Evolution™ 300 UV-Vis Spectrophotometer (Thermo Scientific, Waltham, Massachusetts, USA). The calibration curve was measured, and molar absorption coefficient calculated.
Thus, we dissolved the menadione in two conditions: in PBS containing either 1% DMSO or 1% DMSO/Tween80 at 400 μM. Tween 80 is a surfactant and the idea is to mix with the DMSO before to add to PBS is due to necessity to improve the solubility of menadione in aqueous solution. We measured the absorption spectrum in both conditions to analyze if there is any change in optical properties. The range of wavelength absorption of menadione was measured between 200-800 nm (see FIG. 12B) to choose the optimum wavelength of the light absorption spectra. […] The maximum wavelength of absorption found was 340 nm for both conditions. […] The molar absorptivity coefficient was compared in different wavelength according with the Table 1.

P. aeruginosa [4] = assay: MIC of menadione by broth microdilution, with or without aBL; assay type: cell-based, Pseudomonas aeruginosa PA01
Protocol: The MICs of menadione in different bacterial strains were determined by a standard broth microdilution assay according to the Clinical and Laboratory Standards Institute. Briefly, menadione was prepared at 100 mg/mL in Tween 80/DMSO (1:1) as a stock solution. The stock solution was diluted to 2048 μg/mL in BHI and then serial dilutions were performed to 1024-0.015 μg/mL in a 96-well plate. Then, a 10 μL stationary growth-phase culture of 10^8 CFU/mL bacteria in BHI broth was added to the 96-well plate containing the serial dilutions of menadione. The medium containing a similar amount of Tween 80/DMSO (1:1) served as a control. The microplates were incubated at 37° C. for 24 hours and the lowest concentration of the compound capable of completely inhibiting bacterial growth was referred to as the MIC.
However, we investigated the effects of aBL (50 mW/cm^2) in potentiating the antibacterial activities of menadione in the three strains of bacteria. […] The highest fluence that we investigated was 125 J/cm^2, when we irradiated the bacteria for 42 minutes.

S. aureus MN8 = S. aureus MN8 cultured aerobically vs anaerobically; cited from earlier work

CC1=CC(=O)c2ccccc2C1=O [menadione, 2-methyl-1,4-naphthoquinone]
eradication by aBL combined with menadione (MRSA): 4.59 log10 CFU/mL
eradication by aBL combined with menadione (P. aeruginosa [1]): 4.54 log10 CFU/mL
fluorescence signal of ROS probes, menadione exposed to blue light ([2]; 405 nm, DCF-DA, SOSG, HPF): higher fluorescence signal
fluorescence signal of ROS probes, menadione dark group ([2]; no irradiation): negligible
maximum wavelength of absorption ([3]; 400 μM in PBS with 1% DMSO or 1% DMSO/Tween80, both conditions): 340 nm
ε, molar absorptivity coefficient, λ = 340 nm ([3]; 1% DMSO in PBS): 2458 L/mol/cm
ε, molar absorptivity coefficient, λ = 380 nm ([3]; 1% DMSO in PBS): 572.1 L/mol/cm
ε, molar absorptivity coefficient, λ = 405 nm ([3]; 1% DMSO in PBS): 128.82 L/mol/cm
ε, molar absorptivity coefficient, λ = 340 nm ([3]; 1% DMSO/Tween in PBS): 2064 L/mol/cm
ε, molar absorptivity coefficient, λ = 380 nm ([3]; 1% DMSO/Tween in PBS): 410.31 L/mol/cm
ε, molar absorptivity coefficient, λ = 405 nm ([3]; 1% DMSO/Tween in PBS): 113.85 L/mol/cm
MIC (P. aeruginosa [4]; Pseudomonas aeruginosa, light or radiation study, 5 min, aBL 15.62 J/cm^2 (5 mins.), 50 mW/cm^2, read-out: MIC): 64 µg/mL
MIC (P. aeruginosa [4]; Pseudomonas aeruginosa, light or radiation study, 0.175 h, aBL 31.25 J/cm^2 (10.5 mins.), 50 mW/cm^2, read-out: MIC): 8 µg/mL
MIC (P. aeruginosa [4]; Pseudomonas aeruginosa, light or radiation study, 0 J/cm^2 (Dark), read-out: MIC): 1020 µg/mL
MIC (P. aeruginosa [4]; aBL 62.5 J/cm^2 (21 mins.), 50 mW/cm^2): complete eradication
MIC (P. aeruginosa [4]; aBL 125 J/cm^2 (42 mins.), 50 mW/cm^2): completely eradicated
bactericidal activity, aerobic vs anaerobic culture (S. aureus MN8): 4 fold
